Measurements taken from patent US20040116354A1, “Supplementary immunotherapeutics to be used after lung cancer removal” (priority 2001, published 2004).

How the values were obtained:
[1] = test system: lung squamous cell carcinoma in the histopathological stage I; experiment: multicenter double blind comparative clinical test, ubenimex preparation vs placebo after complete resection; type: in vivo, human
Procedure: With complete resection patients of lung squamous cell carcinoma in the histopathological stage I, a multicenter double blind comparative test using an ubenimex preparation (containing 30 mg ubenimex) and a placebo preparation (a control contentaining no ubenimex) was carried out. The ubenimex preparation or the placebo preparation was administered orally once a day. The dosing period of these preparations was 2 years after surgical resection. The observation period was 5 years or more including the subsequent period of 3 years or more of no administration after the dosing period. The survival time and recurrence-free survival time in the collected 389 cases (189 cases at the stage IA and 200 cases at the stage IB) were compared between the two groups, namely the ubenimex group and the placebo group by the Kaplan-Meier method. Tables 1 and 2 show the results of the statistic analysis by the generalized Wilcoxon test and the Log-Rank test. […] In these tables, the “U group” means the ubenimex-administered group and the “P group” means the placebo-administered group.

[2] = test system: non-small cell lung cancer; settings: histopathological stages I and II; 90 mg twice weekly for 5 years; 227 cases; cited from earlier work
[3] = test system: lung squamous cell carcinoma; settings: histopathological stage I; 30 mg daily for one year or longer; 21 cases; with or without tegaful; cited from earlier work
[4] = test system: mice; settings: 298 mg/kg (i.p.); cited from earlier work
[5] = test system: humans; set-up: dose or concentration left out as unconfirmed; settings: cited from earlier work
[6] = Stage IA (189 cases), 30 mg orally once a day for 2 years
[7] = Stage IB (200 cases), 30 mg orally once a day for 2 years
[8] = total cases stage I (389 cases), 30 mg orally once a day for 2 years after resection, Kaplan-Meier

CC(C)C[C@H](NC(=O)[C@@H](O)[C@H](N)Cc1ccccc1)C(=O)O [ubenimex, (−)-N-((2S, 3R)-3-amino-2-hydroxy-4-phenylbutyryl)-L-leucine]
incidence of appetite loss (only adverse effect significantly occurring) ([1]; 30 mg orally once a day for 2 years): 2.5%
5-year recurrence-free survival ratio [1, 6]: 73%
5-year survival ratio (survival time) [1, 6]: 84%
5-year recurrence-free survival ratio [1, 7]: 68%
5-year survival ratio (survival time) [1, 7]: 77%
5-year recurrence-free survival ratio [1, 8]: 70%
5-year survival ratio (survival time) [1, 8]: 81%
recurrence-free survival time vs non-administered group [2]: favorable trend compared with the non-administered group in terms of recurrence-free survival time but the trend is far from significance
survival time vs ubenimex non-administered group [3]: prolonged
toxicity in mice [4]: no observed toxicity
adverse effects in humans [5]: no specific adverse effects observed
